Results: PubChem BioAssay (NCI)
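The concentration for 50% growth inhibition is given as GI50. TGI is the concentration that stops growth completely.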

What was measured:
Test in all cases: DTP human tumour cell line panel, 384-well format
[1] = tested on: 786-0 renal
[2] = tested on: A498 renal
[3] = tested on: A549 NSCLC
[4] = tested on: ACHN renal
[5] = tested on: BT-549 breast
[6] = tested on: CAKI-1 renal
[7] = tested on: CCRF-CEM leukemia
[8] = tested on: COLO 205 colon
[9] = tested on: DU-145 prostate
[10] = tested on: EKVX NSCLC
[11] = tested on: HCC-2998 colon
[12] = tested on: HCT-116 colon
[13] = tested on: HCT-15 colon
[14] = tested on: HL-60(TB) leukemia
[15] = tested on: HOP-62 NSCLC
[16] = tested on: HOP-92 NSCLC
[17] = tested on: HS 578T breast
[18] = tested on: HT29 colon
[19] = tested on: IGROV1 ovarian
[20] = tested on: K-562 leukemia
[21] = tested on: KM12 colon
[22] = tested on: LOX IMVI melanoma
[23] = tested on: M14 melanoma
[24] = tested on: MALME-3M melanoma
[25] = tested on: MCF7 breast
[26] = tested on: MDA-MB-435 melanoma
[27] = tested on: MDA-MB-468 breast
[28] = tested on: MOLT-4 leukemia
[29] = tested on: NCI-H226 lung
[30] = tested on: NCI-H23 lung
[31] = tested on: NCI-H322M lung
[32] = tested on: NCI-H460 NSCLC
[33] = tested on: NCI-H522 lung
[34] = tested on: NCI/ADR-RES ovarian
[35] = tested on: OVCAR-3 ovarian
[36] = tested on: OVCAR-4 ovarian
[37] = tested on: OVCAR-8 ovarian
[38] = tested on: PC-3 prostate
[39] = tested on: RPMI-8226 leukemia
[40] = tested on: RXF 393 renal
[41] = tested on: SF-268 CNS
[42] = tested on: SF-295 CNS
[43] = tested on: SF-539 CNS
[44] = tested on: SK-MEL-2 melanoma
[45] = tested on: SK-MEL-28 melanoma
[46] = tested on: SK-MEL-5 melanoma
[47] = tested on: SK-OV-3 ovarian
[48] = tested on: SN12C renal
[49] = tested on: SNB-19 CNS
[50] = tested on: SNB-75 CNS
[51] = tested on: SW-620 colon
[52] = tested on: TK-10 renal
[53] = tested on: U251 glioblastoma
[54] = tested on: UACC-257 melanoma
[55] = tested on: UACC-62 melanoma

With `O=C1C=CC(Nc2ccccc2[N+](=O)[O-])C1Nc1ccccc1[N+](=O)[O-]` (stereo not given) the GI50 [1] was 1780 nM, the TGI [1] was 3320 nM and the GI50 [2] was 2010 nM. For the same compound, the TGI [2] was 3800 nM, the GI50 [3] was 3540 nM and the TGI [3] was 11800 nM. The GI50 [4] was 1620 nM, the TGI [4] was 3010 nM and the GI50 [5] was 1580 nM. The TGI [5] was 3080 nM, the GI50 [6] was 1290 nM and the TGI [6] was 2580 nM. The GI50 [7] was 386 nM, the TGI [7] was 1350 nM and the GI50 [8] was 1910 nM. The TGI [8] was 3370 nM, the GI50 [9] was 4870 nM and the TGI [9] was 15700 nM. The GI50 [10] was 3020 nM, the TGI [10] was 8070 nM and the GI50 [11] was 2050 nM. It also gave a TGI [11] of 4780 nM, a GI50 [12] of 1320 nM and a TGI [12] of 2640 nM. For the same compound, the GI50 [13] was 1560 nM, the TGI [13] was 2940 nM and the GI50 [14] was 148 nM. The TGI [14] was 281 nM, the GI50 [15] was 2300 nM and the TGI [15] was 3940 nM. The GI50 [16] was 2000 nM, the TGI [16] was 3570 nM and the GI50 [17] was 1840 nM. It also gave a TGI [17] of 3420 nM, a GI50 [18] of 1620 nM and a TGI [18] of 3150 nM. The GI50 [19] was 2020 nM, the TGI [19] was 4160 nM and the GI50 [20] was 4850 nM. It also gave a TGI [20] of 15000 nM, a GI50 [21] of 2120 nM and a TGI [21] of 5950 nM. For the same compound, the GI50 [22] was 1840 nM, the TGI [22] was 3470 nM and the GI50 [23] was 1710 nM. It also gave a TGI [23] of 3160 nM, a GI50 [24] of 2270 nM and a TGI [24] of 3740 nM. It also gave a GI50 [25] of 1640 nM, a TGI [25] of 3040 nM and a GI50 [26] of 2400 nM. It also gave a TGI [26] of 5280 nM, a GI50 [27] of 510 nM and a TGI [27] of 967 nM. For the same compound, the GI50 [28] was 344 nM, the TGI [28] was 1090 nM and the GI50 [29] was 1530 nM. The TGI [29] was 2930 nM, the GI50 [30] was 1980 nM and the TGI [30] was 3620 nM. The GI50 [31] was 13800 nM, the TGI [31] was 26900 nM and the GI50 [32] was > 100000 nM. The TGI [32] was > 100000 nM, the GI50 [33] was 1390 nM and the TGI [33] was 2690 nM. It also gave a GI50 [34] of 2780 nM, a TGI [34] of 5640 nM and a GI50 [35] of 1520 nM. It also gave a TGI [35] of 2870 nM, a GI50 [36] of 1780 nM and a TGI [36] of 3340 nM. It also gave a GI50 [37] of 1660 nM, a TGI [37] of 3060 nM and a GI50 [38] of 1580 nM. It also gave a TGI [38] of 2960 nM, a GI50 [39] of 222 nM and a TGI [39] of 410 nM. It also gave a GI50 [40] of 1710 nM, a TGI [40] of 3110 nM and a GI50 [41] of 2340 nM. It also gave a TGI [41] of 4420 nM, a GI50 [42] of 19500 nM and a TGI [42] of 34600 nM. The GI50 [43] was 1590 nM, the TGI [43] was 2950 nM and the GI50 [44] was 445 nM. For the same compound, the TGI [44] was 1290 nM, the GI50 [45] was 1950 nM and the TGI [45] was 3410 nM. For the same compound, the GI50 [46] was 1750 nM, the TGI [46] was 3200 nM and the GI50 [47] was 4500 nM. It also gave a TGI [47] of 15900 nM, a GI50 [48] of 1760 nM and a TGI [48] of 3150 nM. It also gave a GI50 [49] of 5200 nM, a TGI [49] of 15600 nM and a GI50 [50] of 4160 nM. It also gave a TGI [50] of 10100 nM, a GI50 [51] of 1730 nM and a TGI [51] of 3150 nM. For the same compound, the GI50 [52] was 1650 nM, the TGI [52] was 3030 nM and the GI50 [53] was 2110 nM. For the same compound, the TGI [53] was 3780 nM, the GI50 [54] was 1830 nM and the TGI [54] was 3230 nM. The GI50 [55] was 1680 nM and the TGI [55] was 3100 nM.
